Reference: patent US7384934B2, “Piperazine substituted aryl benzodiazepines” (Eli Lilly and Company, priority 2002, dated 2008)
Structures can show the parent of a compound that is named as a salt.

Target: T1, Dopamine D2 receptor (Homo sapiens, UniProt P14416)
T1 construct: purchased Receptor Biology (now owned by NEN) RBHD2CM
Experiment: Dopamine D2 receptor binding assay ([125I]iodospiperone)
Conditions: relative Ki scale of Table 5; read-out: Relative D2 Receptor Binding Affinity Ki
Experimental: The assay buffers used are 50 mM Tris-HCl pH 7.4, 120 mM NaCl, 5 mM KCl, 5 mM MgCl2, 1 mM EDTA for the Dopamine D2s receptor binding assay. […] The membranes used are from Receptor Biology (now owned by NEN), Cat # RBHD2CM for the D2 receptor.
Compounds are obtained as 10 mM stocks in 100% DMSO. They are diluted to 1 mM in 100% DMSO by adding 180 μL DMSO to 20 μL of stock in 96 well plates using a multidrop. […] This is done using a TECAN robot.
The radioligand is diluted in assay buffer to provide 0.1 nM for the D2 assay. Each vial of membranes is diluted up to 92 mL in assay buffer. The final assay volume is 250 μL consisting of 210 μl of diluted membranes, 20 μL of compound or 10% DMSO for total binding, and 20 μL of diluted radioligand. The compounds are transferred from drug dilution plates into coming 96 well assay plates using a 96 well Multimek pipettor. Radioligand and membranes are added to assay plates using multidrop pipettors. Non-specific binding is determined in wells containing a final concentration of 5 μM haloperidol. The final drug concentration range in half logs is from 10 μM down to 0.1 nM.
After addition of drug, membrane, and ligand, the plates are incubated for 2 hours at room temperature. During this time 96 well Millipore filter plates (MAFBNOB50) are soaked for a least 30 minutes with 200 μL per well of 0.5% polyethyleneimine.
The 0.5% PEI is removed from filterplate wells using a TiterTek MAP aspirator and 200 μL of the incubation mixture is transferred from the incubation plate to the filterplate after mixing. This transfer is done using the 96 tip Mutimek pipettor. After transfer to the filterplate filterplates are extracted and ished twice with 220 μL per well of cold buffer on the MAP aspirator. The peel away bottoms are removed from the filterplates and 60 μL per well of microscint 20 scintillation fluid is added per well using a multidrop. […]

T1 sequence (P14416 1-414 isoform P14416-2): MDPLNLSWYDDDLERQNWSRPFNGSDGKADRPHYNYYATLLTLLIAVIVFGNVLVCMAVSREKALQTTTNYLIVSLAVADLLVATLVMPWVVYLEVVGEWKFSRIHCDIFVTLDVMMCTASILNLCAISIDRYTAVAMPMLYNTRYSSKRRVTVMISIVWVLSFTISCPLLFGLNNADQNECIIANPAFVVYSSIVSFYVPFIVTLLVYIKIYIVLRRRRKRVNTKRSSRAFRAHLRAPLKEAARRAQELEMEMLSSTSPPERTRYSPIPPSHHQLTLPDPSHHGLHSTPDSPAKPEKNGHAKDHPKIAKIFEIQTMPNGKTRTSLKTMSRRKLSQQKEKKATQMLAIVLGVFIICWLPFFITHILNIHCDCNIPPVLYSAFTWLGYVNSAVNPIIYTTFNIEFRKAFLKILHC

Row | Ki [nM] | Structure (SMILES)
1 | 10 to 100 | COC(C)C[C@H]1CN(C2=Nc3ccccc3Nc3sc(C)cc32)CCN1 (mixture of isomers) [Example 359, 10-[3(S)-(2(S)-Methoxypropyl)-piperazin-1-yl]-2-methyl-4H-3-thia-4,9-diazabenzo[f]azulene and 10-[3(S)-(2(R)-Methoxypropyl)-piperazin-1-yl]-2-methyl-4H-3-thia-4,9-diazabenzo[f]azulene]
2 | 100 to 1000 | COC(C)C[C@H]1CN(C2=Nc3ccccc3Nc3sc(C)cc32)CCN1C (mixture of isomers) [Example 360, 10-[3(S)-(2(S)-Methoxypropyl)-4-methylpiperazin-1-yl]-2-methyl-4H-3-thia-4,9-diazabenzo[f]azulene dihydrochloride and 10-[3(S)-(2(R)-Methoxypropyl)-4-methylpiperazin-1-yl]-2-methyl-4H-3-thia-4,9-diazabenzo[f]azulene dihydrochloride]
3 | < 10 | COC(C)C[C@H]1CN(C2=Nc3ccccc3Nc3sc(C(C)C)nc32)CCN1 (mixture of isomers) [Example 361, 10-[3(S)-(2(S)-Methoxy-propyl)-piperazin-1-yl]-2-isopropyl-4H-3-thia-1,4,9-triazabenzo[f]azulene and 10-[3(S)-(2(R)-Methoxy-propyl)-piperazin-1-yl]-2-isopropyl-4H-3-thia-1,4,9-triazabenzo[f]azulene]
4 | > 1000 | COCC[C@H]1CN(C2=Nc3ccccc3Nc3cc(C)ccc32)CCN1 [Example 198, (S)-3-Methyl-11-[3-(2-methoxy-ethyl)-piperazin-1-yl]-5H-dibenzo[b,e][1,4]diazepine]
5 | 10 to 100 | COCC[C@H]1CN(C2=Nc3ccccc3Nc3sc(C)cc32)CCN1 [Example 242, (S)-10-[3-(2-Methoxyethyl)-piperazin-1-yl]-2-methyl-4H-3-thia-4,9-diazabenzo[f]azulene hydrochloride]
6 | 10 to 100 | COCC[C@H]1CN(C2=Nc3ccccc3Nc3sc(C)cc32)CCN1C [Example 267, (s)-10-[3-(2-Methoxyethyl)-4-methylpiperazin-1-yl]-2-methyl-4H-3-thia-4,9-diazabenzo[f]azulene dihydrochloride]
7 | 10 to 100 | CCOCC[C@H]1CN(C2=Nc3ccccc3Nc3sc(C)cc32)CCN1C [Example 268, (S)-10-[3-(2-Ethoxyethyl)-4-methyl-piperazin-1-yl]-2-methyl-4H-3-thia-4,9-diazabenzo[f]azulene dihydrochloride]
8 | 10 to 100 | Cc1cc2c(s1)Nc1ccccc1N=C2N1CCN(C)[C@@H](CCOc2ccccc2)C1 [Example 269, (S)-10-[4-Methyl-3-(2-phenoxyethyl)piperazin-1-yl]-2-methyl-4H-3-thia-4,9-diazabenzo[f]azulene dihydrochloride]
9 | 10 to 100 | CCOCC[C@H]1CN(C2=Nc3ccccc3Nc3sc(C)nc32)CCN1 [Example 302, (S)-10-[3-(2-Ethoxyethyl)-piperazin-1-yl]-2-methyl-4H-3-thia-1,4,9-triazabenzo[f]azulene]
10 | < 10 | CCc1nc2c(s1)Nc1ccccc1N=C2N1CCN[C@@H](CCOC)C1 [Example 303, (S)-10-[3-(2-Methoxy-ethyl)-piperazin-1-yl]-2-ethyl-4H-3-thia-1,4,9-triaza-benzo[f]azulene]
11 | < 10 | CCCc1nc2c(s1)Nc1ccccc1N=C2N1CCN[C@@H](CCOC)C1 [Example 304, (S)-10-[3-(2-Methoxy-ethyl)-piperazin-1-yl]-2-propyl-4H-3-thia-1,4,9-triaza-benzo[f]azulene]
12 | 10 to 100 | CCCCc1nc2c(s1)Nc1ccccc1N=C2N1CCN[C@@H](CCOC)C1 [Example 305, (S)-10-[3-(2-Methoxy-ethyl)-piperazin-1-yl]-2-butyl-4H-3-thia-1,4,9-triaza-benzo[f]azulene]
13 | 10 to 100 | CCOCC[C@H]1CN(C2=Nc3ccccc3Nc3sc(C(C)C)nc32)CCN1 [Example 309, (S)-10-[3-(2-Ethoxyethyl)-piperazin-1-yl]-2-isopropyl-4H-3-thia-1,4,9-triazabenzo[f]azulene]
14 | 100 to 1000 | COCC[C@H]1CN(C2=Nc3ccccc3Nc3sc(CO)nc32)CCN1 [Example 312, (S)-10-[3-(2-Methoxy-ethyl)-piperazin-1-yl]-4H-3-thia-1,4,9-triaza-benzo[f]azulene-2-yl-methanol]
15 | 100 to 1000 | CCOC(=O)c1nc2c(s1)Nc1ccccc1N=C2N1CCN[C@@H](CCOC)C1 [Example 313, (S)-10-[3-(2-Methoxy-ethyl)-piperazin-1-yl]-4H-3-thia-1,4,9-triaza-benzo[f]azulene-2-carboxylic acid ethyl ester]
16 | < 10 | COCC[C@H]1CN(C2=Nc3ccccc3Nc3sc(C(F)(F)F)nc32)CCN1 [Example 314, (S)-10-[3-(2-Methoxy-ethyl)-piperazin-1-yl]-2-trifluoromethyl-4H-3-thia-1,4,9-triaza-benzo[f]azulene]
17 | < 10 | COCC[C@H]1CN(C2=Nc3ccccc3Nc3sc(C(F)F)nc32)CCN1 [Example 316, (S)-10-[3-(2-Methoxy-ethyl)-piperazin-1-yl]-2-difluoromethyl-4H-3-thia-1,49-triaza-benzo[f]azulene]
18 | < 10 | COCC[C@H]1CN(C2=Nc3ccccc3Nc3sc(CCC(F)(F)F)nc32)CCN1 [Example 318, (S)-10-[3-(2-Methoxy-ethyl)-piperazin-1-yl]-2-(3,3,3-trifluoro-propyl)-4H-3-thia-1,4,9-triaza-benzo[f]azulene dihydrochloride]
19 | 10 to 100 | Cc1nc2c(s1)Nc1ccccc1N=C2N1CCN(C)[C@@H](CCO)C1 [Example 319, (S)-2-[1-Methyl-4-(2-methyl-4H-3-thia-1,4,9-triazabenzo[f]azulene-10-yl)piperazin-2-yl]ethanol dihydrochloride]
20 | 10 to 100 | COCC[C@H]1CN(C2=Nc3ccccc3Nc3sc(C)nc32)CCN1C [Example 320, (S)-10-[3-(2-Methoxyethyl)-4-methylpiperazin-1-yl]-2-methyl-4H-3-thia-1,4,9-triazabenzo[f]azulene dihydrochloride]
21 | 100 to 1000 | CCOCC[C@H]1CN(C2=Nc3ccccc3Nc3sc(C)nc32)CCN1C [Example 321, (S)-10-[3-(2-Ethoxyethyl)-4-methyl-piperazin-1-yl]-2-methyl-4H-3-thia-1,4,9-triazabenzo[f]azulene dihydrochloride]
22 | 10 to 100 | CCc1nc2c(s1)Nc1ccccc1N=C2N1CCN(C)[C@@H](CCOC)C1 [Example 322, (S)-10-[3-(2-Methoxy-ethyl)-4-methyl-piperazin-1-yl]-2-ethyl-4H-3-thia-1,49-triaza-benzo[f]azulene dihydrochloride]
23 | 10 to 100 | CCCc1nc2c(s1)Nc1ccccc1N=C2N1CCN(C)[C@@H](CCOC)C1 [Example 323, (S)-10-[3-(2-Methoxy-ethyl)-4-methyl-piperazin-1-yl]-2-propyl 4H-3-thia-1,4,9-triaza-benzo[f]azulene dihydrochloride]
24 | 10 to 100 | CCCCc1nc2c(s1)Nc1ccccc1N=C2N1CCN(C)[C@@H](CCOC)C1 [Example 324, (S)-10-[3-(2-Methoxy-ethyl)-4-methyl-piperazin-1-yl]-2-butyl 4H-3-thia-1,4,9-triaza-benzo[f]azulene]
25 | < 10 | CC(C)c1nc2c(s1)Nc1ccccc1N=C2N1CCN(C)[C@@H](CCO)C1 [Example 326, (S)-2-[4-(2-Isopropyl-4H-3-thia-1,49-triazabenzo[f]azulene-10-yl)-1-methylpiperazin-2-yl]ethanol]
26 | 10 to 100 | CCOCC[C@H]1CN(C2=Nc3ccccc3Nc3sc(C(C)C)nc32)CCN1C [Example 328, (S)-10-[3-(2-Ethoxyethyl)-4-methylpiperazin-1-yl]-2-isopropyl-4H-3-thia-1,4,9-triazabenzo[f]azulene dihydrochloride]
27 | 10 to 100 | COCC[C@H]1CN(C2=Nc3ccccc3Nc3sc(C4CCCC4)nc32)CCN1C [Example 331, (S)-10-[3-(2-Methoxyethyl)-4-methylpiperazin-1-yl]-2-cyclopentyl 4H-3-thia-1,4,9-triazabenzo[f]azulene dihydrochloride]
28 | 100 to 1000 | CCOC(=O)c1nc2c(s1)Nc1ccccc1N=C2N1CCN(C)[C@@H](CCOC)C1 [Example 333, (S)-10-[3-(2-Methoxy-ethyl)-4-methyl-piperazin-1-yl]-4H-3-thia-1,4,9-triaza-benzo[f]azulene-2-carboxylic acid ethyl ester dihydrochloride]
29 | < 10 | COCC[C@H]1CN(C2=Nc3ccccc3Nc3sc(C(F)(F)F)nc32)CCN1C [Example 334, (S)-10-[3-(2-Methoxy-ethyl)-4-methyl-piperazin-1-yl]-2-trifluoromethyl-4H-3-thia-1,4,9-triaza-benzo[f]azulene]
30 | < 10 | COCC[C@H]1CN(C2=Nc3ccccc3Nc3sc(C(F)F)nc32)CCN1C [Example 336, (S)-10-[3-(2-Methoxy-ethyl)-4-methyl-piperazin-1-yl]-2-difluoromethyl 4H-3-thia-1,4,9-triaza-benzo[f]azulene]
